According to PubChem BioAssay (NCI):
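Assay format: 96-well plates, 48-hour exposure. Here, GI50 denotes the concentration required for 50% inhibition of growth. TGI denotes the concentration required for complete inhibition of growth.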

Tests used:
Assay in all cases: growth of human tumour cells (NCI), 48 h
SK-MEL-5 melanoma = tested on: SK-MEL-5 melanoma
SNB-19 CNS = tested on: SNB-19 CNS
A498 renal = tested on: A498 renal
EKVX NSCLC = tested on: EKVX NSCLC
OVCAR-8 ovarian = tested on: OVCAR-8 ovarian
HOP-92 NSCLC = tested on: HOP-92 NSCLC
CCRF-CEM leukemia = tested on: CCRF-CEM leukemia
HCT-116 colon = tested on: HCT-116 colon
NCI-H23 lung = tested on: NCI-H23 lung
K-562 leukemia = tested on: K-562 leukemia

Structure (SMILES)	TGI (SK-MEL-5 melanoma)	TGI (SNB-19 CNS)	TGI (A498 renal)	TGI (EKVX NSCLC)	TGI (OVCAR-8 ovarian)	TGI (HOP-92 NSCLC)	TGI (CCRF-CEM leukemia)	TGI (HCT-116 colon)	TGI (NCI-H23 lung)	TGI (K-562 leukemia)	GI50 (SK-MEL-5 melanoma)	GI50 (SNB-19 CNS)	GI50 (A498 renal)	GI50 (EKVX NSCLC)	GI50 (OVCAR-8 ovarian)	GI50 (HOP-92 NSCLC)	GI50 (HCT-116 colon)	GI50 (NCI-H23 lung)	GI50 (K-562 leukemia)	GI50 (CCRF-CEM leukemia)
COc1cc2c(cc1OC)C(Cc1ccccc1CCCl)=NCC2	54.3 µM	> 100 µM	> 100 µM	> 100 µM	> 100 µM	> 100 µM	> 100 µM	> 100 µM	> 100 µM	> 100 µM	–	–	–	–	–	–	–	–	–	–
CCOC(=O)c1c(C)[nH]c(/C=C2\N=C(c3ccc[nH]3)C=C2OC)c1C	0.0698 µM	> 42.3 µM	5.7 µM	3.81 µM	1.61 µM	0.0792 µM	–	–	2.03 µM	1.53 µM	0.0231 µM	0.735 µM	1.87 µM	0.469 µM	0.0358 µM	0.0323 µM	< 0.0107 µM	0.235 µM	0.0504 µM	–
O=C(OCC1CCCN2CCCCC12)c1ccncc1 (stereo not drawn)	> 100 µM	> 100 µM	> 100 µM	> 100 µM	> 100 µM	> 100 µM	> 100 µM	> 100 µM	> 100 µM	> 100 µM	–	–	–	–	–	–	–	–	–	–
CSc1ccc(/C=C2\N=C(c3ccccc3)N(c3nc4c(Cl)cc(Cl)cc4s3)C2=O)cc1	34.9 µM	> 100 µM	40.8 µM	49.9 µM	> 100 µM	> 100 µM	43.3 µM	41.5 µM	–	> 100 µM	–	–	–	–	–	–	–	–	–	–
OCCN=C1c2ccccc2C2C(c3ccccc31)C1c3ccccc3C(=NCCO)c3ccccc3C21 (stereo not drawn)	35.2 µM	41.4 µM	–	> 100 µM	> 100 µM	–	35.9 µM	30.3 µM	> 100 µM	40.2 µM	–	–	–	–	–	–	–	–	–	–
Cc1ccc(/C=N/NC2=NCCN2)s1	> 100 µM	> 100 µM	–	> 100 µM	> 100 µM	> 100 µM	–	> 100 µM	> 100 µM	> 100 µM	–	–	–	–	–	–	–	–	–	–
CC12CC3(O)OC(O1)C1(COC(=O)c4ccccc4)C3CC21OC1OC(CO)C(O)C(O)C1O (stereo not drawn)	> 100 µM	> 100 µM	> 100 µM	> 100 µM	> 100 µM	> 100 µM	> 100 µM	> 100 µM	> 100 µM	–	–	–	–	–	–	–	–	–	–	–
COc1cc(C(=O)Nc2c3ccccc3nc3ccccc23)cc(OC)c1OC	> 100 µM	> 100 µM	–	> 100 µM	> 100 µM	> 100 µM	> 100 µM	> 100 µM	> 100 µM	> 100 µM	–	–	–	–	–	–	–	–	–	–
CN[C@@H](C)[C@H](OP(=O)(O)OC1[C@@H](O)[C@H](O)C(O)[C@H](O)[C@@H]1O)c1ccccc1 (stereo partly drawn)	> 100 µM	> 100 µM	> 100 µM	> 100 µM	> 100 µM	> 100 µM	> 100 µM	> 100 µM	> 100 µM	–	–	–	–	–	–	–	–	–	–	–
COC(=O)c1cc2c3c(cc(O)c2[nH]1)N(C(=O)C1Cc2cc(OC)c(OC)c(OC)c2N1)CC3CCl (stereo not drawn)	< 0.01 µM	1.05 µM	< 0.01 µM	< 0.01 µM	0.014 µM	–	> 100 µM	–	< 0.01 µM	–	< 0.01 µM	< 0.01 µM	< 0.01 µM	< 0.01 µM	< 0.01 µM	–	–	< 0.01 µM	–	< 0.01 µM
